Several values for one entry are separate records, joined by “and”; a condition that tells them apart may be missing. Identical values can stand only once.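 All cell lines were grown in 96-well plates and treated with compound for 48 hours. Abbreviation: GI50, concentration required for 50% inhibition of growth.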 Activity calls are given as the source filed them. Rule as the data show it: active = GI50 up to about 1.1 µM and inactive = higher.
How the values were obtained:
Experiment in all cases: DTP human tumour cell line panel, 48 h
OVCAR-3 = system: OVCAR-3
HT-29 = system: HT-29
HOP-62 = system: HOP-62
SR = system: SR
MDA-MB-231 = system: MDA-MB-231
NCI-H226 = system: NCI-H226
SN12C = system: SN12C
HCT-116 = system: HCT-116
EKVX = system: EKVX
SF-268 = system: SF-268
CCRF-CEM = system: CCRF-CEM
MDA-MB-435 = system: MDA-MB-435
SNB-75 = system: SNB-75
T47D = system: T47D
OVCAR-5 = system: OVCAR-5
MDA-N = system: MDA-N
U-251 = system: U-251
SK-MEL-2 = system: SK-MEL-2
SNB-19 = system: SNB-19

Row | SMILES | GI50 (OVCAR-3) | GI50 (HT-29) | GI50 (HOP-62) | GI50 (SR) | GI50 (MDA-MB-231) | GI50 (NCI-H226) | GI50 (SN12C) | GI50 (HCT-116) | GI50 (EKVX) | GI50 (SF-268) | GI50 (CCRF-CEM) | GI50 (MDA-MB-435) | GI50 (SNB-75) | GI50 (T47D) | GI50 (OVCAR-5) | GI50 (MDA-N) | GI50 (U-251) | GI50 (SK-MEL-2) | GI50 (SNB-19)
1 | COCc1cc2c(cc1/C=C/[N+](=O)[O-])OCO2 | 19.4 µM (inactive) | 18.5 µM (inactive) | 20.7 µM (inactive) | 53.3 µM (inactive) | 20.4 µM (inactive) | 19.8 µM (inactive) | 18.5 µM (inactive) | 17.9 µM (inactive) | 17.8 µM (inactive) | 20.7 µM (inactive) | 1.62 µM (inactive) | 18.3 µM (inactive) | 17.9 µM (inactive) | 21.1 µM (inactive) | 16.4 µM (inactive) | 17.7 µM (inactive) | 17.7 µM (inactive) |  | 
2 | Nc1nc(Nc2ccccc2)c2[nH]cnc2n1 | 89.9 µM (inactive) | 63.7 µM (inactive) | > 100 µM (inactive) |  | > 100 µM (inactive) | 40.6 µM (inactive) | > 100 µM (inactive) | 69 µM (inactive) | > 100 µM (inactive) |  | 50.7 µM (inactive) | > 100 µM (inactive) | 9.57 µM (inactive) | > 100 µM (inactive) |  | 47.8 µM (inactive) | > 100 µM (inactive) | 66.2 µM (inactive) | > 100 µM (inactive)
3 | COC1OC(COC(=O)NCCCCC(=O)C(F)(F)C(F)(F)C(F)(F)C(F)(F)C(F)(F)C(F)(F)C(F)(F)F)C(O)C(O)C1O (stereo not drawn) | 15.5 µM (inactive) and 14.9 µM (inactive) | 15.8 µM (inactive) and 13.5 µM (inactive) | 15 µM (inactive) and 16.2 µM (inactive) | 30.3 µM (inactive) and 42.9 µM (inactive) | 23.1 µM (inactive) and 23.9 µM (inactive) |  | 19.6 µM (inactive) and 21.4 µM (inactive) | 15 µM (inactive) and 19 µM (inactive) |  | 15.7 µM (inactive) and 18.2 µM (inactive) |  | 15.8 µM (inactive) and 16.6 µM (inactive) | 14.4 µM (inactive) and 15.8 µM (inactive) | 19.6 µM (inactive) and 15.2 µM (inactive) | 17.8 µM (inactive) and 17.5 µM (inactive) | 24 µM (inactive) and 26.4 µM (inactive) | 19.3 µM (inactive) and 11.9 µM (inactive) | 22.2 µM (inactive) and 21.8 µM (inactive) | 17.8 µM (inactive) and 17.9 µM (inactive)
4 | CCCCCCCCCCC(O)C1CCC(C2CCC(C(O)CCCCC(O)CCCCCC(O)CC3=CC(C)OC3=O)O2)O1 (stereo not drawn) | > 25 µM (inactive) | 3.21 µM (inactive) | > 25 µM (inactive) | 0.0218 µM (active) | > 25 µM (inactive) | 3.82 µM (inactive) | 9.48 µM (inactive) | 0.748 µM (active) | 4.09 µM (inactive) | 4 µM (inactive) |  | > 25 µM (inactive) | 5.16 µM (inactive) | > 11.8 µM (inactive) | > 25 µM (inactive) | 3.86 µM (inactive) | > 25 µM (inactive) | > 25 µM (inactive) | > 25 µM (inactive)
5 | CCOC(=O)c1cc(I)c(-c2cc(C)no2)n1C | 38.4 µM (inactive) | 74.1 µM (inactive) |  |  | 36 µM (inactive) | > 100 µM (inactive) | 21.5 µM (inactive) | 40.4 µM (inactive) | 27 µM (inactive) | 60.1 µM (inactive) | 27.9 µM (inactive) | 34.8 µM (inactive) | 49.8 µM (inactive) | 32.2 µM (inactive) | 93.3 µM (inactive) | 43.9 µM (inactive) | 60.5 µM (inactive) | > 100 µM (inactive) | > 100 µM (inactive)
6 | CC(=O)O[C@H]1C(=O)[C@@]2(C)C([C@H](OC(=O)c3ccccc3)[C@]3(O)C[C@H](OC(=O)[C@H](O)[C@@H](NC(=O)c4ccc(Cl)cc4)c4ccccc4)C(C)=C1C3(C)C)C1(OC(C)=O)CO[C@@H]1C[C@@H]2O (stereo partly drawn) | 0.0346 µM (active) | 0.03 µM (active) | 0.474 µM (active) |  | 0.265 µM (active) | 0.173 µM (active) | 0.182 µM (active) | 0.0499 µM (active) | 9.2 µM (inactive) | 0.156 µM (active) | < 0.01 µM (active) | 0.00507 µM (active) | 0.021 µM (active) | 0.82 µM (active) | 0.104 µM (active) | 0.00665 µM (active) | 0.092 µM (active) | 0.0274 µM (active) | 0.137 µM (active)
7 | O=C1CC2CCC(C1)[S+]2[O-] (stereo not drawn) | > 100 µM (inactive) | > 100 µM (inactive) | > 100 µM (inactive) | > 100 µM (inactive) | > 100 µM (inactive) | > 100 µM (inactive) | > 100 µM (inactive) | > 100 µM (inactive) | > 100 µM (inactive) | > 100 µM (inactive) | > 100 µM (inactive) | > 100 µM (inactive) | > 100 µM (inactive) | > 100 µM (inactive) |  | > 100 µM (inactive) | > 100 µM (inactive) | > 100 µM (inactive) | > 100 µM (inactive)
8 | CCOC(=O)[C@@H]1CCN2CN(c3ccc(OC)cc3)N=C(c3ccccc3)[C@@]12c1ccccc1 |  | 17.1 µM (inactive) | 27.7 µM (inactive) | 23.7 µM (inactive) | 31.6 µM (inactive) | 14.7 µM (inactive) | 16 µM (inactive) | 16.7 µM (inactive) | 29.4 µM (inactive) | 28.9 µM (inactive) | 23.7 µM (inactive) | 26.5 µM (inactive) | 11.5 µM (inactive) | 19.1 µM (inactive) | 32.2 µM (inactive) | 23.2 µM (inactive) | 28.9 µM (inactive) | 18.1 µM (inactive) | 37 µM (inactive)
9 | CC(c1ccccc1)n1cncc1C(=O)NN1CCN(C)CC1 (stereo not drawn) | > 10 µM (inactive) | > 10 µM (inactive) | > 10 µM (inactive) | > 10 µM (inactive) | > 10 µM (inactive) | 3.81 µM (inactive) | > 10 µM (inactive) | > 10 µM (inactive) | > 10 µM (inactive) | > 10 µM (inactive) | > 10 µM (inactive) | > 10 µM (inactive) |  | > 10 µM (inactive) | > 10 µM (inactive) | > 10 µM (inactive) | > 10 µM (inactive) | > 10 µM (inactive) | > 10 µM (inactive)
10 | Cc1cc(C)n2c(nc3ccccc32)c1C#N | > 100 µM (inactive) | > 100 µM (inactive) |  |  | 69.2 µM (inactive) | > 100 µM (inactive) | > 100 µM (inactive) | 54.1 µM (inactive) | > 100 µM (inactive) |  | > 100 µM (inactive) | > 100 µM (inactive) |  | > 100 µM (inactive) | > 100 µM (inactive) | > 100 µM (inactive) | > 100 µM (inactive) | > 100 µM (inactive) | > 100 µM (inactive)
11 | OC(Cc1cccc2ccccc12)CN1CCC(c2ccccc2)CC1 (stereo not drawn) | 15.1 µM (inactive) | 11.2 µM (inactive) | 15.8 µM (inactive) | 10.8 µM (inactive) | 14.2 µM (inactive) |  | 16.5 µM (inactive) | 13.2 µM (inactive) | 14 µM (inactive) | 14.4 µM (inactive) | 18.5 µM (inactive) | 15.1 µM (inactive) | 12.3 µM (inactive) | 14.3 µM (inactive) | 13.7 µM (inactive) | 14.3 µM (inactive) | 13.4 µM (inactive) |  | 13 µM (inactive)
12 | CC1(C)O[C@@H]([C@@H](O)[C@H](O)C2SCCCS2)[C@@H](CO)O1 | > 100 µM (inactive) | > 100 µM (inactive) | > 100 µM (inactive) |  | > 100 µM (inactive) | > 100 µM (inactive) | > 100 µM (inactive) | > 100 µM (inactive) | > 100 µM (inactive) | > 100 µM (inactive) | > 100 µM (inactive) | > 100 µM (inactive) | > 100 µM (inactive) | > 100 µM (inactive) | > 100 µM (inactive) | > 100 µM (inactive) | > 100 µM (inactive) | > 100 µM (inactive) | > 100 µM (inactive)
13 | O=C1N/C(=N/N=C/C(O)C(O)C(O)CO)N/C1=C\c1c[nH]c2ccccc12 (stereo not drawn) | > 100 µM (inactive) | > 100 µM (inactive) | > 100 µM (inactive) |  | > 100 µM (inactive) | > 100 µM (inactive) | > 100 µM (inactive) | > 100 µM (inactive) | > 100 µM (inactive) | > 100 µM (inactive) | 41.7 µM (inactive) | > 100 µM (inactive) | > 100 µM (inactive) | > 100 µM (inactive) | > 100 µM (inactive) | > 100 µM (inactive) | > 100 µM (inactive) |  | 1.93 µM (inactive)
14 | N#Cc1c(N)c2c(c(-c3ccccc3)c1-c1ccccc1)C(=O)N(Nc1ccccc1)C2=O | 21.7 µM (inactive) |  |  | 36.2 µM (inactive) | > 100 µM (inactive) | 37.3 µM (inactive) | 30.7 µM (inactive) | 12.9 µM (inactive) | 42.4 µM (inactive) | 59.2 µM (inactive) | 31.6 µM (inactive) | 68.5 µM (inactive) | 38.4 µM (inactive) | 19.4 µM (inactive) | 27 µM (inactive) | 36.8 µM (inactive) | 93.5 µM (inactive) | 30.1 µM (inactive) | 45.8 µM (inactive)
15 | O=C1OC(C2(O)OC(=O)c3ccccc32)c2ccccc21 (stereo not drawn) | > 100 µM (inactive) | > 100 µM (inactive) | > 100 µM (inactive) | > 100 µM (inactive) | > 100 µM (inactive) | > 100 µM (inactive) | > 100 µM (inactive) | > 100 µM (inactive) | 62.4 µM (inactive) | > 100 µM (inactive) |  | > 100 µM (inactive) | > 100 µM (inactive) | > 100 µM (inactive) | > 100 µM (inactive) | > 100 µM (inactive) | > 100 µM (inactive) | > 100 µM (inactive) | > 100 µM (inactive)

— ChEMBL document CHEMBL1201862, “PubChem BioAssay data set” (2004)
